# Counter-ions that a name gives are not always drawn.
# How the values were obtained:
# [1] = target: T1, hS1P1 receptors (Homo sapiens, UniProt P21453); assay: Intracellular Ca2+ mobilization in CHO cells expressing human S1P receptors (hS1P1); format: cell-based; settings: read-out: S1P1 (EC50 class, intracellular Ca2+ mobilization)
# T1 construct: expressed in transfected cells; host or cells: CHO cells (Geneticin-selected)
# Protocol: (§1) Test for the Ability of Test Compounds to Induce Intracellular Ca^2+ Mobilization in Cells Expressing Human S1P (Sphingosine-1-Phosphate) Receptors
# (§2) CHO cells expressing human S1P receptors (i.e., CHO cells expressing hS1P1 receptors or hS1P3 receptors) were subcultured on Ham's F-12 medium supplemented with 10% fetal bovine serum and 200 μg/mL Geneticin. The cells were seeded on a 96-well black clear bottom plate (COSTAR) at 4×10^4 cells/well and were cultured overnight at 37° C. in 5% CO2. A fluorescent reagent that emits fluorescence upon binding to Ca^2+ (Calcium Screening Kit (DOJINDO)) was added to the culture and the cells were further cultured for 60 min at 37° C. in 5% CO2. After culturing, microplate spectrofluorometer (FLEX station, MOLECULAR DEVICE) was used to measure the fluorescence intensity at an excitation wavelength of 485 nm and a detection wavelength of 525 nm. S1P or a test compound adjusted with cultural medium to a concentration 10 times higher than the final concentration (final DMSO concentration=0.1%). Each test compound solution was added 18 sec. after beginning of the measurement of fluorescence. The fluorescence intensity was measured every 1.5 sec for 100 sec. For each test compound, the difference between the maximum fluorescence intensity and the minimum fluorescence intensity (i.e., increase in fluorescence) was determined from the measurements. The rate of fluorescence increase (%) for each test compound was calculated by the difference (100%) of the fluorescence increase between solvent only and S1P (10^−6M). Using this value as an index of the ability of the test compound to induce intracellular Ca^2+ mobilization, EC50 was determined by PRISM software (GraphPad).
# [2] = target: T2, hS1P3 receptors (Homo sapiens, UniProt Q99500); assay: Intracellular Ca2+ mobilization in CHO cells expressing human S1P receptors (hS1P3); format: cell-based; settings: read-out: S1P3 (EC50 class, intracellular Ca2+ mobilization)
# T2 construct: expressed in transfected cells; host or cells: CHO cells (Geneticin-selected)
# T2 sequence (Q99500 whole entry): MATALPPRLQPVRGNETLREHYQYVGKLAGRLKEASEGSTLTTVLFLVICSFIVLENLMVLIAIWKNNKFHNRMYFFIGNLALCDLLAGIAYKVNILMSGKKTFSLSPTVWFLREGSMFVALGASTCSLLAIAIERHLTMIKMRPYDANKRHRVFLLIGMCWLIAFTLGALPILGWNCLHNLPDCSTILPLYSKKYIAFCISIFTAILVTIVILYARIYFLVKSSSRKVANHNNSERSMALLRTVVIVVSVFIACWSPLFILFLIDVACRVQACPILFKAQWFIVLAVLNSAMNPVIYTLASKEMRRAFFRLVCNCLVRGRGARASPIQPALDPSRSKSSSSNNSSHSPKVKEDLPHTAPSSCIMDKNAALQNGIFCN
# Protocol: as §1, §2
# [3] = system: host vs. graft rejection in mice; assay: Inhibitory effects on host vs. graft rejection in mice (right popliteal lymph node weight); format: in vivo, C3H/HeN mice; settings: Mus musculus, Dose 0.03 mg/kg
# Protocol: Inhibitory Effects of Test Compounds on Host Vs. Graft Rejection in Mice
# This experiment was performed according to the method described in Transplantation 55(3) (1993): 578-591. Spleens were collected from 6 to 16 week old male BALB/c mice (CHARLES RIVER JAPAN). The spleens were placed in an RPMI-1640 medium (SIGMA) and were gently pressed between two slide glasses and then passed through a cell strainer (70 μm, Falcon) to form a cell suspension. The suspension was then centrifuged and the supernatant was discarded. An ammonium chloride-Tris isotonic buffer was added to the suspension to lyse erythrocytes. The cells were then centrifuged three times in RPMI-1640 medium for washing and were resuspended in an RPMI-1640 medium. To this suspension, mitomycin C (KYOWA HAKKO KOGYO Co., Ltd.) was added to a final concentration of 25 μg/mL and the suspension was incubated for 30 minutes at 37° C. in a 5% CO2 atmosphere. The cells were centrifuged three times in RPMI-1640 medium for washing and were resuspended in an RPMI-1640 medium so that the medium would contain 2.5×10^8 cells/mL. This suspension served as a “stimulation cell suspension.” Using a 27 G needle with a microsyringe (Hamilton), 20 μL (5×10^6 cells/mouse) of the stimulation cell suspension was subcutaneously injected into the right hind footpad of 6 to 8 week old male C3H/HeN mice (CLEA JAPAN). Normal control group was injected with RPMI-1640 medium alone. 4 days after the injection, right popliteal lymph nodes were collected and were weighed on a Mettler AT201 electronic scale (METTLER TOLEDO Co., Ltd.). Each animal was intraperitoneally administered a test compound once a day for four consecutive days starting on the day of the injection of the stimulation cells (i.e., total of 4 times). Control groups were administered the same vehicle as that used in the preparation of each test compound. The inhibition (%) was determined using the following formula {[Weight of right popliteal lymph nodes of positive control group]−[Weight of right popliteal lymph nodes of test compound group]×100}/{[Weight of right popliteal lymph nodes of positive control group]−[Weight of right popliteal lymph nodes of normal control group]} Formula 1
# T1 sequence (P21453 whole entry): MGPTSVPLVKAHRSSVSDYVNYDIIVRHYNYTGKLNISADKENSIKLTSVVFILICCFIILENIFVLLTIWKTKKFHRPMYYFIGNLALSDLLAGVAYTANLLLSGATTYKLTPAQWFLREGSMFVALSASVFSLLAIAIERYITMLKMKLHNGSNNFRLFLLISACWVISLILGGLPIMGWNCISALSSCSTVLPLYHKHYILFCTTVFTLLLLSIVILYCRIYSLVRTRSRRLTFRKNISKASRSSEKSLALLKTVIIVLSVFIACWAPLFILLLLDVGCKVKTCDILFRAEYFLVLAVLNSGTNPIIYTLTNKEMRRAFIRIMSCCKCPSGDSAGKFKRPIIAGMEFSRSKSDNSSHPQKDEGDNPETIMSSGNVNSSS
SMILES,EC50 [1] [µM],EC50 [2] [µM],melting point [°C],inhibition in vivo at 0.03 mg/kg [3] [%]
"CC(N)(/C=C/P(=O)(O)O)CCCc1ccc(Sc2cccc(OCc3ccccc3)c2)cc1Cl (racemic) [Example 261, 3-amino-6-[4-(3-benzyloxyphenylthio)-2-chlorophenyl]-3-methyl-1-hexenylphosphonic acid]",0.1 to 1,≥ 1,243 to 245,–
"COP(=O)(OC)OCC(C)(CCc1ccc(Sc2cccc(OCc3ccccc3)c2)cc1Cl)NC(=O)OC(C)(C)C (single isomer, unassigned; (+)) [Example 247, (+)-4-[4-(3-benzyloxyphenylthio)-2-chlorophenyl]-2-t-butoxycarbonylamino-1-dimethoxyphosphoryloxy-2-methylbutane]",–,–,–,63
"CC(N)(CCc1ccc(Sc2cccc(OCc3ccccc3)c2)cc1Cl)COP(=O)(O)O (single isomer, unassigned; (-)) [Example 250, (−)-2-amino-4-[4-(3-benzyloxyphenylthio)-2-chlorophenyl]-2-methylbutylphosphonate monoester]",0.1 to 1,≥ 1,–,–
"NC(/C=C(/F)P(=O)(O)O)CCc1ccc(Sc2cccc(OCc3ccccc3)c2)cc1Cl (stereo not shown) [Example 253, (Z)-3-amino-5-[4-(3-benzyloxyphenylthio)-2-chlorophenyl]-1-fluoro-1-pentenylphosphonic acid]",0.1 to 1,0.1 to 1,285 to 288,–
"NC(CO)(CCc1ccc(Sc2cccc(OCc3ccccc3)c2)cc1Cl)CCP(=O)(O)O (stereo not shown) [Example 269, 3-amino-5-[4-(3-benzyloxyphenylthio)-2-chlorophenyl]-3-hydroxymethylpentylphosphonic acid]",0.01 to 0.1,≥ 1,205 to 208,–
"CCCC(N)(/C=C/P(=O)(OC)OC)CCCc1ccc(Sc2cccc(OCc3ccccc3)c2)cc1Cl (stereo not shown) [Example 280, Dimethyl 3-amino-6-[4-(3-benzyloxyphenylthio)-2-chlorophenyl]-3-propyl-1-hexenylphosphonate hydrochloride]",0.1 to 1,0.1 to 1,–,–
"CCCC(N)(/C=C/P(=O)(O)O)CCCc1ccc(Sc2cccc(OCc3ccccc3)c2)cc1Cl (stereo not shown) [Example 283, 3-amino-6-[4-(3-benzyloxyphenylthio)-2-chlorophenyl]-3-propyl-1-hexenylphosphonic acid]",0.01 to 0.1,0.01 to 0.1,–,–
"CCCC(N)(CCCc1ccc(Sc2cccc(OCc3ccccc3)c2)cc1Cl)CCP(=O)(O)O (stereo not shown) [Example 284, 3-amino-6-[4-(3-benzyloxyphenylthio)-2-chlorophenyl]-3-propylhexylphosphonic acid]",0.01 to 0.1,0.1 to 1,–,–
"Cl.NC(CO)(CCCc1ccc(Sc2cccc(OCc3ccccc3)c2)cc1Cl)CP(=O)(O)O (stereo not shown) [Example 286, 2-amino-5-[4-(3-benzyloxyphenylthio)-2-chlorophenyl]-2-hydroxymethylpentylphosphonate hydrochloride]",0.01 to 0.1,≥ 1,98 to 101,–
"NC(CO)(CCCCc1ccc(Sc2cccc(OCc3ccccc3)c2)cc1Cl)CCP(=O)(O)O (stereo not shown) [Example 289, 3-amino-[4-(3-benzyloxyphenylthio)-2-chlorophenyl]-3-hydroxymethylheptylphosphonic acid]",–,–,180 to 183,–
"NC(CO)(CCCc1ccc(Sc2cccc(OCc3ccccc3)c2)cc1Cl)C(O)C(F)(F)P(=O)(O)O (stereo not shown) [Example 293, 3-amino-6-[4-(3-benzyloxyphenylthio)-2-chlorophenyl]-1,1-difluoro-2-hydroxy-3-hydroxymethylhexylphosphonic acid]",0.1 to 1,0.1 to 1,–,–
"NC(CO)(CCCc1ccc(Oc2cccc(C(F)(F)F)c2)cc1Cl)CCP(=O)(O)O (stereo not shown) [Example 296, 3-amino-6-[2-chloro-4-(3-trifluoromethylphenoxy)phenyl]-3-hydroxymethylhexylphosphonic acid]",0.01 to 0.1,≥ 1,–,–
"NC(CO)(CCCc1ccc(Sc2cccc(C(F)(F)F)c2)cc1Cl)COP(=O)(O)O (stereo not shown) [Example 299, 2-amino-5-[2-chloro-4-(3-trifluoromethylphenylthio)phenyl]-2-hydroxymethylpentylphosphonate monoester]",0.01 to 0.1,≥ 1,–,–
NC(CO)(CCCc1ccc(Oc2cccc(C(F)(F)F)c2)cc1Cl)COP(=O)(O)O (stereo not shown) [Example 300],0.01 to 0.1,≥ 1,–,–
"NC(CO)(CCc1ccc(Sc2ccc(OCc3ccccc3)cc2)cc1Cl)CCP(=O)(O)O (stereo not shown) [Example 308, 3-amino-5-[4-(4-benzyloxyphenylthio)-2-chlorophenyl]-3-hydroxymethylpentylphosphonic acid]",0.1 to 1,≥ 1,–,–

# Further lines, with some results ahead:
EC50 [1] [µM],EC50 [2] [µM],melting point [°C],SMILES,inhibition in vivo at 0.03 mg/kg [3] [%]
0.01 to 0.1,< 0.01,–,"CC(N)(CCc1ccc(Sc2cccc(OCc3ccccc3)c2)cc1Cl)COP(=O)(O)O (single isomer, unassigned; (+)) [Example 249, (+)-2-amino-4-[4-(3-benzyloxyphenylthio)-2-chlorophenyl]-2-methylbutylphosphonate monoester]",–
0.01 to 0.1,0.1 to 1,200 to 203,"CC(N)(CCCc1ccc(Sc2cccc(OCc3ccccc3)c2)cc1Cl)COP(=O)(O)O (single isomer, unassigned; (-)) [Example 240, (−)-2-amino-5-[4-(3-benzyloxyphenylthio)-2-chlorophenyl]-2-methylpentylphosphonate monoester]",–
0.01 to 0.1,≥ 1,288 to 290,"NC(/C=C(\F)P(=O)(O)O)CCc1ccc(Sc2cccc(OCc3ccccc3)c2)cc1Cl (stereo not shown) [Example 254, (E)-3-amino-5-[4-(3-benzyloxyphenylthio)-2-chlorophenyl]-1-fluoro-1-pentenylphosphonic acid]",–
0.01 to 0.1,0.1 to 1,195 to 197,"CC(N)(CCCc1ccc(Sc2cccc(OCc3ccccc3)c2)cc1Cl)CCP(=O)(O)O (stereo not shown) [Example 260, 3-amino-6-[4-(3-benzyloxyphenylthio)-2-chlorophenyl]-3-methylhexylphosphonic acid]",–
< 0.01,0.1 to 1,243 to 246,"NC(/C=C/P(=O)(O)O)(CO)CCCc1ccc(Sc2cccc(OCc3ccccc3)c2)cc1Cl (stereo not shown) [Example 263, 3-amino-[4-(3-benzyloxyphenylthio)-2-chlorophenyl]-3-hydroxymethyl-1-hexenylphosphonic acid]",–
< 0.01,0.1 to 1,193 to 196,"NC(CO)(CCCc1ccc(Sc2cccc(OCc3ccccc3)c2)cc1Cl)CCP(=O)(O)O (stereo not shown) [Example 265, 3-amino-6-[4-(3-benzyloxyphenylthio)-2-chlorophenyl]-3-hydroxymethylhexylphosphonic acid]",–
< 0.01,≥ 1,245 to 248,"NC(/C=C/P(=O)(O)O)(CO)CCc1ccc(Sc2cccc(OCc3ccccc3)c2)cc1Cl (stereo not shown) [Example 267, 3-amino-5-[4-(3-benzyloxyphenylthio)-2-chlorophenyl]-3-hydroxymethyl-1-pentenylphosphonic acid]",–
< 0.01,0.01 to 0.1,258 to 260,"NC(/C=C/P(=O)(O)O)(CO)CCCCc1ccc(Sc2cccc(OCc3ccccc3)c2)cc1Cl (stereo not shown) [Example 290, 3-amino-[4-(3-benzyloxyphenylthio)-2-chlorophenyl]-3-hydroxymethyl-1-heptenylphosphonic acid]",–

# Source: US7759326B2, “Aminophosphonic acid derivative, salt thereof, and modulator of S1P receptor” (Kyorin Pharmaceutical Co., Ltd., priority 2003, dated 2010)
